Patent US7517654B2, “Peptide and a derivative thereof promoting cell adhesion and spreading” (Seoul National University Industry Foundation, priority 2004, dated 2009)

What was measured:
Type in all cases: cell-based, human
HOK-16B cells [1] = experiment: Cell adhesion assay on coated plates (crystal violet absorbance at 570 nm / cell counting)
Procedure: The cell adhesion assay was performed according to a method reported by Okazaki et al. (J. Biol. Chem., 277:37070, 2002). In detail, 24-well culture plates (Nunc, Roskilde, Denmark) were coated with various amounts of rLG proteins at 4° C. overnight. The peptides were also coated on plates by drying overnight. The substrate-coated on the plates were blocked by adding 1% heat-inactivated bovine serum albumin (BSA) in PBS for 1 h at 37° C. and washed twice with PBS. The cells in the Experimental Example 1, detached by 0.05% tyrpsin and 0.53 mM EDTA in PBS and resuspended in culture media, were added (1×10^5 cells/500 μl) to each plate and incubated for 1 h at 37° C. After incubation, unattached cells were removed by rinsing twice with PBS. The attached cells were fixed with 10% formalin in PBS for 15 min, rinsed twice with PBS, and stained with 0.5% crystal violet for 1 h. The plates were gently rinsed with DDW three times and lysed with 2% SDS for 5 min. Absorbance was measured at 570 nm in a Bio-Rad Model 550 microplate reader (BioRad).
The cell adhesion and spreading activities on peptide-coated plates were examined using HOK-16B cells by the same method as Experimental Example 2. 24-well plates were coated with 10, 20, 30, 40 and 50 μg/well peptides P1 to P5, respectively. HOK-16B cells were added to peptide-coated plates and cultured for 1 h in serum-free medium for 1 hr. After the unbound cells were washed off, adherent cells were fixed and stained with crystal violet, and then the stained cells were analyzed. Absorbance was measured at 570 nm in a microplate reader. BSA and the rLG3 were used as negative control and positive control, respectively.
It was observed that peptide P4 promotes strong cell adhesion and spreading activities and binds to integrin α3β1 in the Example 4. Therefore, to determine the biologically active core sequences in peptide P4, five synthetic peptides (P4 D-I to P4 D-V), which are C-terminal truncated peptides from the peptide P4, and six synthetic peptides (P4 D-N1 to P4 D-N6), which are N-terminal truncated peptides from the peptide P4 were prepared (FIG. 6A) and examined for HOK-16B cell adhesion and spreading activities on peptide-coated plates by the present inventors. 24-well plates were coated with 10 μg/well C-terminal truncated peptides or N-terminal truncated peptides, and HOK-16B cells were added to the plates, and then cultured in serum-free medium for 1 hr. After the unbound cells were washed off, the adherent cells were fixed to stain with crystal violet, and the stained cells were analyzed. Absorbance was measured at 570 nm in a microplate reader. Peptide P4 and BSA were used as the positive and negative controls, respectively.
24-well plates were coated with 10 μg/well peptides, and HOK-16B cells were added to the plates, and then cultured in serum-free medium for 1 hr. After the unbound cells were washed off, the adherent cells were fixed to stain with crystal violet, and the stained cells were analyzed. Peptide P4 and BSA were used as the positive and negative controls, respectively. The results were expressed as mean ±SD of the four independent experiments.

HOK-16B cells [2] = experiment: Competition of soluble peptides for HOK-16B cell adhesion to rLG3-coated plates; settings: HOK-16B cells preincubated 30 min with 100 μg/ml peptide, control without peptide = 100%
Procedure: To identify the receptor of the HOK-16B cells for rLG3 protein and peptide P4, 5 μg/ml of mAbs to different types of integrins or 5 mM EDTA were preincubated individually with HOK-16B cells in 0.5 ml incubation solution (2×10^5 cells/ml) for 30 min at 37° C. The preincubated cells were then transferred onto plates precoated with either 25 μg/ml of rLG3 protein or 10 μg/well of peptide P4 and incubated for 1 h at 37° C. Attached cells were then quantified by the cell adhesion assay described above in the Experimental Example 2, and cell adhesion activity inhibition rate were measured.
Accordingly, the inventors examined the ability of peptide P4 to compete for cell adhesion activity to rLG3 domain by the method of Experimental Example 4. First, the purified rLG3 proteins (25 μg/well) were coated onto 24-well plates. HOK-16B cells were preincubated with the various peptides (100 μg/ml) or without the peptide for 30 min at 37° C. The preincubated cells were then added to rLG3-coated plates and cultured for 1 h in serum-free medium. The unbound cells were washed off and the adherent cells were fixed and stained with crystal violet. The average adhesion activity of the control cultures (HOK-16B cells preincubated without peptide) was considered 100%, the results are expressed as mean ±SD of the four independent experiments.

NHEK = experiment: Cell proliferation on coated plates, viable cell count by trypan blue exclusion; settings: peptide P4 20 μg/12-well plate; 1-4 days; compared with PS-coated plate
Procedure: Normal human epidermal keratinocytes (NHEK) tissue samples were prepared from foreskin tissue of healthy 1- to 3-year-old people. The tissue samples were washed three times with calcium- and magnesium-free Hanks balanced salt solution containing 3× antibiotics (CMF-HBSS; GibcoBRL), and added with CMF-HBSS containing collgenase (collgenase type II, 1.0 mg/ml; sigma Chemical Co.) and dispase (dispase grade II, 2.4 mg/ml; Boeringer-Mannheim) to isolate epithelial layer from epidermal tissue, and then, cultured in 95% air and 5% CO2 at 37° C. for 90 min. NHEKs were prepared from the isolated epidermal tissue, and cultured in epithelial cell medium containing 0.15 mM calcium and growth factor bullet kit (KGM; Clonetics Corp.). When cell density was about 70%, NHEKs were divided into 1×10^5 cells per 60-mm petri dish and cultured until cell density reached about 70%. NHEKs were subcultured two times the same way as the above and used.
(§1) Polystyrene (PS), BSA (bovine serum albumin) and synthetic peptide P4 were coated on […]. NHEK (PD 13.0; 2×10^4 cells/12-well plate) and NHEF (passage number 4) cultures were added to the 12-well plate coated with the polystyrene (PS), BSA (1%) and synthetic peptide P4 (20 μg/12-well plate), and cultured for 1, 2, 3, or 4 days. Viable cells were counted by trypan blue exclusion in a hemocytometer. Data are expressed as mean ±SD (n=4).

NHEF = experiment: as above; settings: peptide P4 20 μg/12-well plate; 1-4 days; compared with PS-coated plate
Description: Normal human […] (NHEF) were taken from foreskin tissue of healthy 1- to 3-year-old people, and washed three times with calcium- and magnesium-free Hanks balanced salt solution containing 3× antibiotics (CMF-HBSS; GibcoBRL), and prepared by explant culture. When cell density was about 80%, NHEFs were divided by the ratio of 1:3 and cultured until cell density reached about 80%. […] were subcultured 4 times the same way as the above and used.
as §1

PPFLMLLKGSTR [peptide P4]
coating concentration at which maximum cell adhesion was obtained (HOK-16B cells [1]; HOK-16B cells, peptide-coated 24-well plates): ≥ 10 μg/well | cell adhesion activity of synthetic peptides (HOK-16B cells [1]; HOK-16B cells, plates coated with 10-50 μg/well peptide, 1 h, serum-free medium): strong dose-dependent cell adhesion activity | inhibition of cell adhesion to rLG3 (HOK-16B cells [2]): approximately 51% | increase in the number of NHEKs according to cell proliferation (NHEK): increased more than that on PS-coated plate | increase in the number of NHEFs according to cell proliferation (NHEF): similar

B1: rLG3: recombinant His6-tagged LG3 domain, residues 1128-1364 of human laminin α3 chain (protein, listed as Homo sapiens)
chain: VRLNDTVGVTKKCSEDWKLVRSASFSRGGQLSFTDLGLPPTDHLQASFGFQTFQPSGILLDHQTWTRNLQVTLEDGYIELSTSDSGGPIFKSPQTYMDGLLHYVSVISDNSGLRLLIDDQLLRNSKRLKHISSSRQSLRLGGSNFEGCISNVFVQRLSLSPEVLDLTSNSLKRDVSLGGCSLNKPPFLMLLKGSTRFNKTKTFRINQLLQDTPVASPRSVKVWQDACSPLPKTQANH
modifications: His6 tag
notes: recombinant His6-tagged LG3 domain, residues 1128-1364 of human laminin α3 chain
reduction of the level of cell adhesion compared to the 5 μg/ml laminin-coated control (HOK-16B cells [1]; 50 μg/ml rLG3 protein coating): approximately 45% | cell adhesion activity of rLG proteins (HOK-16B cells [1]; HOK-16B cells on rLG protein-coated plates, 1 h, compared to BSA control): exhibited the adhesive activity | coating concentration at which maximum adhesion occurs (HOK-16B cells [1]; HOK-16B cells, rLG protein-coated plates): 25 µg/mL
